The record followed here is US11339193B2, “CDP protein secretion inhibitors” (KEZAR LIFE SCIENCES, priority 2018, dated 2022).

pEC50, pIC50: −log10 of the molar value. Peptide text beside a SMILES is read from it.

Common to all, as to type: cell-based
For assay [1], the system named is TNFα-FL/Gaussia Luciferase. The experiment in a line: Dox induced TNFα-FL-Gluc assay. The conditions noted are these: Flp-In 293 T-REx cells, doxycycline, 24 hours; read-out: TNFa FL Gluc IC50. A digest of the protocol: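 Stable Flp-In 293 T-REx line expressing full-length TNFα (aa 1-233) fused at its C-terminus to Gaussia luciferase under doxycycline-inducible control. Cells plated the day before, then given compound dilutions in DMSO/media containing doxycycline and incubated at 37 °C, 5% CO2.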

The subject of assay [2] is Prl-ss+10aa/Gaussia Luciferase. The experiment in a line: Prl-ss-Gluc assay (constitutively active or 24 hr Dox inducible). The conditions noted are these: Flp-In 293 T-REx cells, 24 hours; read-out: Prl IC50. An outline of the steps:
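Stable Flp-In 293 T-REx lines express Prl signal sequence+10aa fused to Gaussia luciferase, either constitutively (pcDNA5/FRT) or under the T-REx promoter (pcDNA5/FRT/TO). Cells plated the day before; compounds in DMSO/media (with doxycycline for the inducible line, 24 h) incubated at 37 °C, 5% CO2.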

For assay [3], the system named is BT474 breast tumor cell line. The experiment in a line: BT474 assay (Alamar blue). The settings on record: Homo sapiens, BT-474, 72 h. A digest of the protocol:
(§1)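 For both lines, 5000 cells/well were exposed to compound or a 1% DMSO-medium control for 72 h unless otherwise specified. Signal was normalized to the DMSO control.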
In general terms: The colour change of resazurin is a common sign of viable cells or microbes.

The test system of assay [4] is NCI-H929 multiple myeloma cell line. The experiment in a line: H929 assay (cell viability, Celltiter-Glo). The conditions noted are these: Homo sapiens, NCI-H929; 48 hours, cell viability; read-out: H929 EC50. An outline of the steps: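 Cells plated in RPMI 1640 with 10% FBS and 2 mM glutamine, treated with compound dilutions in DMSO/media. Incubation 48 h at 37° C, 5% CO2. Viability from luciferase luminescence signal.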

The test system of assay [5] is PD1-ss+10aa/Gaussia Luciferase. The experiment in a line: Dox induced PD1-ss-Gluc assay. The settings on record: Flp-In 293 T-REx cells, doxycycline, 24 hours; read-out: PD1ss Gluc IC50. A digest of the protocol: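 Stable Flp-In 293 T-REx line expressing doxycycline-inducible Gaussia luciferase fused to the PD1 signal sequence plus 10 amino acids. Cells plated the day before, then exposed to compound dilutions in DMSO/media containing doxycycline at 37 °C, 5% CO2.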

Assay [6] concerns U266B1 multiple myeloma cell line. The experiment in a line: U266 assay (cell viability, Celltiter-Glo). The settings on record: Homo sapiens, U-266; 48 hours, cell viability. How it is done: Cells were plated in 384-well tissue culture plates and treated with compound dilutions in DMSO/media. Plates were incubated at 37° C., 5% CO2 for 48 hours. After 48 hours, Celltiter-Glo@ (Promega) was added to each well and luciferase signal was quantified using Tecan Infinite M1000 Pro for cell viability determination.
(In ATP-based viability assays light output follows the ATP content of the culture.)

The subject of assay [7] is VCAMss+10aa/Gaussia Luciferase. The experiment in a line: VCAM-ss-Gluc assay (constitutively active or Dox induced). The settings on record: Flp-In 293 T-REx cells, 24 hours. A digest of the protocol: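 Stable cell lines secreting a VCAM signal sequence+10aa/Gaussia luciferase fusion, expressed either constitutively or under T-REx doxycycline control. Cells plated the day before; compound dilutions in DMSO/media (with doxycycline for the induced line) added and incubated at 37° C, 5% CO2.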

Assay [8] concerns JJN3 plasma cell leukemia cell line. The experiment in a line: JJN-3 assay (Alamar blue). The conditions noted are these: Homo sapiens, 72 h. A digest of the protocol:
as §1

For a further assay, the system named is HER3ss-Gluc. The experiment in a line: HER3ss assay. The conditions noted are these: HEK-293T T-rex cells, transient transfection, doxycycline, 24 h; read-out: HER3 ss IC50. An outline of the steps: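 HEK-293T T-REx cells were transiently transfected with HER3 signal sequence (plus four mature-domain residues) fused upstream of mature Gaussia luciferase. Cells were induced with doxycycline (1 μg/ml) and exposed to increasing compound concentrations for 24 h, then secreted luciferase in the conditioned medium was read by luminescence.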

In the case of `COc1cc(Cn2cc(C[C@H]3C(=O)N[C@@H](CC(C)C)C(=O)N(C)[C@@H](C)C(=O)O[C@H](CCC#N)C(=O)N[C@@H](CC(C)C)C(=O)N(C)[C@@H](CC(C)C)C(=O)N[C@@H](CC(C)C)C(=O)N3C)c3ccccc32)ccc1F` [C-27] (HELM PEPTIDE1{L.[meA].[N#CCC[C@@H](O[*:1])C(=O)[*:2]].L.[meL].L.[COc1cc(Cn2cc(C[C@@H](C(=O)[*:2])N(C)[*:1])c3ccccc32)ccc1F]}$PEPTIDE1,PEPTIDE1,1:R1-7:R2$$$V2.0), the negative-log IC50 (pIC50) was 6.63 in [1]; 6.07 in assay [2]; 7.24 in [5]; 6.85 in assay [7]; 7.00 in the assay on HER3ss-Gluc. Besides, the pEC50 is 5.67 in assay [3], 5.77 in assay [4], 4.76 in assay [6] and 6.50 in assay [8].

In the case of `Cc1cccc(Cn2cc(C[C@H]3C(=O)N[C@@H](CC(C)C)C(=O)N(C)[C@@H](C)C(=O)O[C@H](CCC#N)C(=O)N[C@@H](CC(C)C)C(=O)N(C)[C@@H](CC(C)C)C(=O)N[C@@H](CC(C)C)C(=O)N3C)c3ccccc32)n1` [C-33] (HELM PEPTIDE1{L.[meA].[N#CCC[C@@H](O[*:1])C(=O)[*:2]].L.[meL].L.[Cc1cccc(Cn2cc(C[C@@H](C(=O)[*:2])N(C)[*:1])c3ccccc32)n1]}$PEPTIDE1,PEPTIDE1,1:R1-7:R2$$$V2.0), the pIC50 in assay [1] is 5.87; in [2] it was 5.22; in [5] it was 6.41; in assay [7] it was 6.62; with HER3ss-Gluc, 6.67. For the same molecule, the pEC50 in [3] is 5.38; in assay [4], 5.37; in assay [6], 5.05; in assay [8] it was 5.83.

As a reminder, the pIC50 is the IC50 on a negative log10 scale, so that one unit is a factor of ten. What is called pEC50 is −log10 of the EC50, conventionally taken in molar units.
